Laboratory results as given in PubChem BioAssay AID330 (DTP/NCI, 2004).
“And” between values parts separate entries of the source, which are not always exact repeats. Identical values can stand only once. Inconclusive results and toxic doses are left out.

Test system: P388 leukemia ip, CD2F1 mice, survival T/C
Experiment: NCI In Vivo Anticancer Drug Screen. Data for tumor model P388 Leukemia (intraperitoneal) in CD2F1 (CDF1) mice
Conditions: endpoint: median survival time, higher = longer survival
How it was run: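 Mice carrying the transplanted tumor received test compound or vehicle. Survival was recorded in each group, and the value is the treated-group measurement divided by that of the vehicle-treated control group.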

[1] = dose: 100.0 mg/kg/injection, schedule: Q01DX009 (ip), vehicle: saline with Tween-80
[2] = dose: 50.0 mg/kg/injection, schedule: Q01DX005 (ip), vehicle: saline with Tween-80
[3] = dose: 200.0 mg/kg/injection, schedule: Q01DX005 (ip), vehicle: saline with Tween-80
[4] = dose: 50.0 mg/kg/injection, schedule: Q01DX005 (ip), vehicle: Klucel (hydroxypropylcellulose) (HPC)
[5] = dose: 100.0 mg/kg/injection, schedule: Q01DX005 (ip), vehicle: Klucel (hydroxypropylcellulose) (HPC)
[6] = dose: 60.0 mg/kg/injection, schedule: Q01DX005 (ip), vehicle: saline with Tween-80
[7] = dose: 120.0 mg/kg/injection, schedule: Q01DX005 (ip), vehicle: saline with Tween-80
[8] = dose: 240.0 mg/kg/injection, schedule: Q01DX005 (ip), vehicle: saline with Tween-80

CCOc1c(OC)cc(-c2n[nH]c(=O)o2)cc1OC
T/C (dose: 33.75 mg/kg/injection, schedule: Q01DX009 (ip), vehicle: Klucel (hydroxypropylcellulose) (HPC)): 90 % of control
T/C (dose: 67.5 mg/kg/injection, schedule: Q01DX009 (ip), vehicle: Klucel (hydroxypropylcellulose) (HPC)): 105 % of control
T/C (dose: 135.0 mg/kg/injection, schedule: Q01DX009 (ip), vehicle: Klucel (hydroxypropylcellulose) (HPC)): 99 % of control

CCc1ccc(C(C)(C)C)cc1
T/C (dose: 37.5 mg/kg/injection, schedule: Q01DX009 (ip), vehicle: saline with Tween-80): 110 % of control
T/C (dose: 50.0 mg/kg/injection, schedule: Q01DX009 (ip), vehicle: saline with Tween-80): 104 % of control
T/C (dose: 75.0 mg/kg/injection, schedule: Q01DX009 (ip), vehicle: saline with Tween-80): 111 % of control
T/C [1]: 109 % of control
T/C (dose: 132.0 mg/kg/injection, schedule: Q01DX009 (ip), vehicle: saline with Tween-80): 113 % of control
T/C (dose: 150.0 mg/kg/injection, schedule: Q01DX009 (ip), vehicle: saline with Tween-80): 102 % of control

CC(=O)Oc1c2occc2cc2ccc(=O)oc12
T/C [2]: 99 % of control
T/C (dose: 100.0 mg/kg/injection, schedule: Q01DX005 (ip), vehicle: saline with Tween-80): 98 % of control
T/C [3]: 100 % of control

N#C/C(=N\NC(=O)c1cccc(C(=O)N/N=C(\C#N)c2ccccc2Cl)n1)c1ccccc1Cl
T/C (dose: 1.5 mg/kg/injection, schedule: Q01DX005 (ip), vehicle: saline with Tween-80): 92 % of control
T/C (dose: 3.0 mg/kg/injection, schedule: Q01DX005 (ip), vehicle: saline with Tween-80): 94 % of control
T/C (dose: 6.0 mg/kg/injection, schedule: Q01DX005 (ip), vehicle: saline with Tween-80): 94 % of control
T/C (dose: 6.25 mg/kg/injection, schedule: Q01DX005 (ip), vehicle: saline with Tween-80): 91 % of control
T/C [3]: 100 % of control

C=C(Br)C(=NC(C)(C)C)Nc1ccccc1Cl
T/C (dose: 6.25 mg/kg/injection, schedule: Q01DX005 (ip), vehicle: Klucel (hydroxypropylcellulose) (HPC)): 98 % of control
T/C (dose: 12.5 mg/kg/injection, schedule: Q01DX005 (ip), vehicle: Klucel (hydroxypropylcellulose) (HPC)): 109 % of control
T/C (dose: 25.0 mg/kg/injection, schedule: Q01DX005 (ip), vehicle: Klucel (hydroxypropylcellulose) (HPC)): 111 % of control and 120 % of control and 118 % of control
T/C [4]: 118 % of control
T/C [5]: 110 % of control

CC(C)CNC(=O)OCc1c(COC(=O)NCC(C)C)c(-c2ccc(Cl)c(Cl)c2)n2c1CCC2
T/C (dose: 6.25 mg/kg/injection, schedule: Q01DX009 (ip), vehicle: distilled water + Tween-80): 111 % of control and 116 % of control
T/C (dose: 25.0 mg/kg/injection, schedule: Q01DX009 (ip), vehicle: distilled water + Tween-80): 158 % of control and 171 % of control
T/C (dose: 50.0 mg/kg/injection, schedule: Q01DX009 (ip), vehicle: distilled water + Tween-80): 182 % of control and 198 % of control
T/C (dose: 100.0 mg/kg/injection, schedule: Q01DX009 (ip), vehicle: distilled water + Tween-80): 180 % of control
T/C (dose: 200.0 mg/kg/injection, schedule: Q01DX009 (ip), vehicle: distilled water + Tween-80): 100 % of control and 92 % of control

COc1ccc(N=C(C)c2c(O)n(-c3ccccc3)[nH]c2=O)cc1
T/C [4]: 101 % of control
T/C [5]: 104 % of control
T/C (dose: 200.0 mg/kg/injection, schedule: Q01DX005 (ip), vehicle: Klucel (hydroxypropylcellulose) (HPC)): 99 % of control

Cc1cc2cc3c(c(C(=O)O)c2o1)C(=O)c1ccccc1C3
T/C [6]: 107 % of control
T/C [7]: 111 % of control
T/C [8]: 94 % of control

CC(C)Cc1cccc2c1CCCC2
T/C (dose: 50.0 mg/kg/injection, schedule: Q01DX005 (ip), vehicle: suspension in saline): 97 % of control
T/C (dose: 100.0 mg/kg/injection, schedule: Q01DX005 (ip), vehicle: suspension in saline): 97 % of control
T/C (dose: 200.0 mg/kg/injection, schedule: Q01DX005 (ip), vehicle: suspension in saline): 101 % of control

CC(CNC(=O)CCOS(C)(=O)=O)NC(=O)CCOS(C)(=O)=O (stereo not given)
T/C (dose: 12.5 mg/kg/injection, schedule: Q04DX003 (ip), vehicle: saline with Tween-80): 100 % of control
T/C (dose: 50.0 mg/kg/injection, schedule: Q04DX003 (ip), vehicle: saline with Tween-80): 154 % of control
T/C [1]: 154 % of control
T/C (dose: 100.0 mg/kg/injection, schedule: Q04DX003 (ip), vehicle: saline with Tween-80): 150 % of control
T/C (dose: 200.0 mg/kg/injection, schedule: Q01DX009 (ip), vehicle: saline with Tween-80): 177 % of control
T/C (dose: 200.0 mg/kg/injection, schedule: Q04DX003 (ip), vehicle: saline with Tween-80): 175 % of control
T/C (dose: 400.0 mg/kg/injection, schedule: Q01DX009 (ip), vehicle: saline with Tween-80): 90 % of control
T/C (dose: 400.0 mg/kg/injection, schedule: Q04DX003 (ip), vehicle: saline with Tween-80): 241 % of control

O=C(c1ccccc1)c1ccccc1NCC(O)COc1cccc2ccccc12 (stereo not given)
T/C [6]: 100 % of control
T/C [7]: 92 % of control
T/C [8]: 91 % of control

N=C(N)SCC(=O)Nc1nc(NC(=O)CSC(=N)N)nc(NC(=O)CSC(=N)N)n1
T/C (dose: 100.0 mg/kg/injection, schedule: Q04DX002 (ip), vehicle: saline): 101 % of control
T/C (dose: 200.0 mg/kg/injection, schedule: Q04DX002 (ip), vehicle: saline): 99 % of control
T/C (dose: 400.0 mg/kg/injection, schedule: Q04DX002 (ip), vehicle: saline): 100 % of control

O/N=C\c1ccccc1P(c1ccccc1/C=N\O)c1ccccc1/C=N\O
T/C (dose: 100.0 mg/kg/injection, schedule: Q01DX001 (ip), vehicle: saline with Tween-80): 87 % of control
T/C (dose: 200.0 mg/kg/injection, schedule: Q01DX001 (ip), vehicle: saline with Tween-80): 89 % of control

CCOC(=O)c1c(-c2ccccc2)csc1NC(=O)CN1CCOCC1
T/C (dose: 12.5 mg/kg/injection, schedule: Q01DX005 (ip), vehicle: saline with Tween-80): 98 % of control
T/C (dose: 25.0 mg/kg/injection, schedule: Q01DX005 (ip), vehicle: saline with Tween-80): 90 % of control
T/C [2]: 86 % of control
T/C [3]: 88 % of control

COC(=O)[C@]1(CC[N+](=O)[O-])N=C(c2ccccc2)O[C@@H]1C
T/C [6]: 105 % of control
T/C [7]: 109 % of control
T/C [8]: 113 % of control

CCOS(=O)(=O)CS(C)(=O)=O
T/C (dose: 25.0 mg/kg/injection, schedule: Q01DX005 (ip), vehicle: saline): 118 % of control
T/C (dose: 50.0 mg/kg/injection, schedule: Q01DX005 (ip), vehicle: saline): 118 % of control
T/C (dose: 100.0 mg/kg/injection, schedule: Q01DX005 (ip), vehicle: saline): 160 % of control and 170 % of control
T/C (dose: 150.0 mg/kg/injection, schedule: Q01DX005 (ip), vehicle: saline): 104 % of control

OCC1OC(n2nc(Cl)c3ccccc32)C(O)C1O (stereo not given)
T/C (dose: 6.25 mg/kg/injection, schedule: Q01DX009 (ip), vehicle: saline with Tween-80): 102 % of control
T/C (dose: 12.5 mg/kg/injection, schedule: Q01DX009 (ip), vehicle: saline with Tween-80): 98 % of control
T/C (dose: 25.0 mg/kg/injection, schedule: Q01DX009 (ip), vehicle: saline with Tween-80): 94 % of control
T/C (dose: 32.0 mg/kg/injection, schedule: Q01DX002 (ip), vehicle: saline with Tween-80): 104 % of control
T/C (dose: 64.0 mg/kg/injection, schedule: Q01DX002 (ip), vehicle: saline with Tween-80): 106 % of control and 107 % of control
T/C [1]: 91 % of control
T/C (dose: 128.0 mg/kg/injection, schedule: Q01DX002 (ip), vehicle: saline with Tween-80): 106 % of control and 107 % of control

Nc1cc2c(c[n+](CCCBr)c3ccccc23)c2ccccc12
T/C (dose: 1.56 mg/kg/injection, schedule: Q04DX003 (ip), vehicle: other): 118 % of control
T/C (dose: 3.13 mg/kg/injection, schedule: Q04DX003 (ip), vehicle: other): 118 % of control
T/C (dose: 6.25 mg/kg/injection, schedule: Q04DX003 (ip), vehicle: other): 122 % of control

NC(Cc1ccccc1)C(=O)Nc1cccnc1 (stereo not given)
T/C (dose: 15.0 mg/kg/injection, schedule: Q01DX005 (ip), vehicle: saline): 98 % of control
T/C (dose: 30.0 mg/kg/injection, schedule: Q01DX005 (ip), vehicle: saline): 102 % of control
T/C (dose: 60.0 mg/kg/injection, schedule: Q01DX005 (ip), vehicle: saline): 102 % of control and 105 % of control

CC(C)OSc1ccccc1
T/C (dose: 12.5 mg/kg/injection, schedule: Q01DX001 (ip), vehicle: Klucel (hydroxypropylcellulose) (HPC)): 113 % of control
T/C (dose: 25.0 mg/kg/injection, schedule: Q01DX001 (ip), vehicle: Klucel (hydroxypropylcellulose) (HPC)): 113 % of control
T/C (dose: 50.0 mg/kg/injection, schedule: Q01DX001 (ip), vehicle: Klucel (hydroxypropylcellulose) (HPC)): 102 % of control
T/C (dose: 100.0 mg/kg/injection, schedule: Q01DX001 (ip), vehicle: Klucel (hydroxypropylcellulose) (HPC)): 103 % of control and 107 % of control and 97 % of control
